The source of these data is PubChem BioAssay (NCI).

Molecules are shown by their SMILES.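 Each compound was tested at five concentrations against cells in 96-well plates for 48 hours. Abbreviation: GI50, concentration required for 50% inhibition of growth. At the TGI there is no net growth.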

Test systems include HCC-2998 colon; A498 renal; IGROV1 ovarian; OVCAR-4 ovarian; MOLT-4 leukemia; NCI-H460 lung; SK-MEL-2 melanoma; LOX IMVI melanoma; KM12 colon; SK-OV-3 ovarian.
What all share (experiment): DTP human tumour cell line panel, 48 h

Usually TGI stands for the concentration at which net growth stops. Higher therefore signals less potent growth arrest. Consider `CS(=O)(=O)Nc1ccc2c(c1)oc(=O)c1ccccc12`, for which the TGI with HCC-2998 colon, in the assay on A498 renal, in the assay with IGROV1 ovarian, in the assay on OVCAR-4 ovarian, with MOLT-4 leukemia and in the assay on NCI-H460 lung was above 100 µM in each case. The TGI with SK-MEL-2 melanoma, in the assay with LOX IMVI melanoma and in the assay on KM12 colon was above 100 µM each time.
Take `CC1=NNC(=O)C2CCC(=O)N12` (stereo not given): the TGI with HCC-2998 colon, in the assay on A498 renal, in the assay on IGROV1 ovarian, in the assay on OVCAR-4 ovarian, with MOLT-4 leukemia and in the assay on SK-OV-3 ovarian was above 100 µM throughout. Moreover, the TGI in the assay with NCI-H460 lung, in the assay on SK-MEL-2 melanoma and with KM12 colon was above 100 µM each time.
A word on the GI50: it is the concentration at which growth is held to half of that of the control. For the molecule `CCN(CC)CCOc1ccc(-c2nc3cc(Cl)ccc3s2)cc1`, the GI50 with A498 renal is 1.66 µM; in the assay with IGROV1 ovarian it was 1.85 µM; in the assay with OVCAR-4 ovarian, 1.65 µM; in the assay with MOLT-4 leukemia, 2.24 µM; with SK-OV-3 ovarian, 1.77 µM; in the assay on NCI-H460 lung, 1.59 µM. Also, the GI50 with SK-MEL-2 melanoma is 1.89 µM; in the assay with LOX IMVI melanoma it was 1.39 µM. Besides, the TGI was determined as 3.83 µM in the assay on A498 renal; 3.61 µM with IGROV1 ovarian; 7.21 µM in the assay with OVCAR-4 ovarian; 10.9 µM in the assay with MOLT-4 leukemia; 3.84 µM in the assay on SK-OV-3 ovarian; 2.93 µM in the assay on NCI-H460 lung. The TGI with SK-MEL-2 melanoma was determined as 3.59 µM; with LOX IMVI melanoma, 2.68 µM.
Regarding `Cn1c2ccccc2c2c3c(c4c5cc(Br)ccc5n(C)c4c21)C(=O)N(O)C3=O`, the GI50 is 1.01 µM with HCC-2998 colon; 0.284 µM with IGROV1 ovarian; 0.0474 µM in the assay with MOLT-4 leukemia; 0.048 µM in the assay with NCI-H460 lung; above 48.2 µM in the assay on SK-MEL-2 melanoma; 0.426 µM with KM12 colon. The TGI is above 100 µM with HCC-2998 colon; above 100 µM in the assay on IGROV1 ovarian; 0.275 µM in the assay with MOLT-4 leukemia; 1.08 µM with NCI-H460 lung; above 100 µM with SK-MEL-2 melanoma; above 100 µM in the assay on KM12 colon.
Consider `CC(C)=CC/C=C(/C)[C@H]1CC[C@]2(C)[C@@H]1CC[C@@H]1[C@@]3(C)CCCNC(C)(C)[C@@H]3CC[C@]12C`, for which the GI50 with HCC-2998 colon is 1.97 µM; with A498 renal, 13.8 µM; in the assay on IGROV1 ovarian it was 1.87 µM; with OVCAR-4 ovarian, 3.33 µM; with MOLT-4 leukemia, 2.15 µM; with SK-OV-3 ovarian it was 10.6 µM. The GI50 is 2.11 µM in the assay on NCI-H460 lung and 6.06 µM in the assay on SK-MEL-2 melanoma. Besides, the TGI in the assay with HCC-2998 colon came out at 3.56 µM; in the assay on A498 renal, 29.3 µM; with IGROV1 ovarian it was 3.72 µM; in the assay with OVCAR-4 ovarian it was 11.4 µM; with MOLT-4 leukemia, 5.93 µM; with SK-OV-3 ovarian, 24.8 µM. The TGI was 4.4 µM in the assay with NCI-H460 lung and 22.5 µM with SK-MEL-2 melanoma.
Regarding `S=C1NC2(CCCCCC2)NN1c1ccccc1`, the TGI in the assay on A498 renal, with IGROV1 ovarian, in the assay on OVCAR-4 ovarian, with MOLT-4 leukemia, in the assay on SK-OV-3 ovarian and in the assay with NCI-H460 lung was above 100 µM throughout. The TGI in the assay on LOX IMVI melanoma and in the assay on KM12 colon was above 100 µM throughout.
For `O=[N+]([O-])c1ccc(C2=Nn3cnnc3SC2)o1`, the TGI in the assay on HCC-2998 colon was determined as 29.2 µM; in the assay with A498 renal it was 32.3 µM; in the assay with MOLT-4 leukemia it was 43.2 µM; in the assay on NCI-H460 lung, 26.3 µM; in the assay on SK-MEL-2 melanoma, 50.7 µM; in the assay with LOX IMVI melanoma it was 5.99 µM. The molecule also yielded a TGI in the assay on KM12 colon of 47.6 µM.
In the case of `COc1cccc(/C=C/c2cc(OC)c(OC)c(OC)c2)c1`, the TGI in the assay with HCC-2998 colon, in the assay on A498 renal, with IGROV1 ovarian, in the assay with MOLT-4 leukemia, in the assay with SK-OV-3 ovarian and with NCI-H460 lung was above 100 µM throughout. Besides, the TGI with SK-MEL-2 melanoma and with KM12 colon was above 100 µM in each case.
For the molecule `CN(C)c1nc2ccccc2[nH]1`, the TGI with HCC-2998 colon, in the assay on IGROV1 ovarian, in the assay on OVCAR-4 ovarian, in the assay on MOLT-4 leukemia, in the assay with SK-OV-3 ovarian and in the assay on NCI-H460 lung was above 100 µM each time. In addition, the TGI with SK-MEL-2 melanoma, in the assay with LOX IMVI melanoma and in the assay on KM12 colon was above 100 µM each time.
As for `CN1CCN(CCOc2ccc(-c3cnc4c(-c5ccccc5F)cnn4c3)cc2)CC1`, the GI50 with HCC-2998 colon is 1.73 µM; in the assay on A498 renal, 1.43 µM; in the assay on IGROV1 ovarian, 1.81 µM; in the assay with OVCAR-4 ovarian it was 1.55 µM; with MOLT-4 leukemia, 1.79 µM; in the assay with NCI-H460 lung, 1.63 µM. Further, the GI50 is 1.86 µM in the assay on SK-MEL-2 melanoma, 1.81 µM in the assay on LOX IMVI melanoma and 0.647 µM in the assay with KM12 colon. Further, the TGI in the assay with HCC-2998 colon came to 3.25 µM; with A498 renal, 2.9 µM; in the assay on IGROV1 ovarian, 3.58 µM; with OVCAR-4 ovarian, 4.49 µM; with MOLT-4 leukemia it was 4.36 µM; with NCI-H460 lung, 3.05 µM. Further, the TGI with SK-MEL-2 melanoma amounted to 3.57 µM; in the assay with LOX IMVI melanoma it was 3.27 µM; with KM12 colon it was 2.12 µM.
`N#CC(N)(C(=O)CCC(=O)Nc1cccc(Cl)c1)c1ccc(Cl)cc1` (stereo not given): the TGI with A498 renal, in the assay with IGROV1 ovarian, in the assay on OVCAR-4 ovarian, in the assay with MOLT-4 leukemia, in the assay with SK-OV-3 ovarian and with NCI-H460 lung was above 100 µM each time. For the same molecule, the TGI in the assay on SK-MEL-2 melanoma and with KM12 colon was above 100 µM throughout.
In the case of `COc1cc2nc(-c3ccc(Cl)cc3)cc(OCCCN3CCCCC3)c2cc1OC`, the GI50 with A498 renal is 1.4 µM; with IGROV1 ovarian, 0.838 µM; in the assay with OVCAR-4 ovarian it was 3.85 µM; in the assay with NCI-H460 lung, 0.842 µM; in the assay on KM12 colon it was 3.07 µM. The TGI with A498 renal is 3.82 µM; in the assay with IGROV1 ovarian it was above 100 µM; with OVCAR-4 ovarian it was above 100 µM; in the assay with NCI-H460 lung, above 100 µM; in the assay with KM12 colon it was above 100 µM.
